In ChEMBL document CHEMBL1781873, “Synthesis and antibacterial property of pyrrolopyrano quinolinones and pyrroloquinolines” (2011):
Values after ≈ are worked out from the molar mass of the structure shown. Active and inactive are the calls of the source. The calls are words filed in the database; no cut-off is given here.

Key:
[1] = test system: Escherichia coli; experiment: Antibacterial activity against Escherichia coli at 25 ug after 24 hrs by disc diffusion assay; type: functional; conditions: read-out: IZ
[2] = test system: Pseudomonas aeruginosa; experiment: Antibacterial activity against Pseudomonas aeruginosa after 18 to 20 hrs by broth micro dilution assay; type: functional
[3] = test system: Pseudomonas aeruginosa; experiment: Antibacterial activity against Pseudomonas aeruginosa at 10 ug after 24 hrs by disc diffusion assay; type: functional; conditions: read-out: IZ
[4] = test system: Staphylococcus aureus; experiment: Antibacterial activity against Staphylococcus aureus at 20 ug after 24 hrs by disc diffusion assay; type: functional; conditions: read-out: IZ
[5] = test system: Klebsiella pneumoniae; experiment: Antibacterial activity against Klebsiella pneumoniae at 5 ug after 24 hrs by disc diffusion assay; type: functional; conditions: read-out: IZ
[6] = test system: Bacillus subtilis; experiment: Antibacterial activity against Bacillus subtilis at 20 ug after 24 hrs by disc diffusion assay; type: functional; conditions: read-out: IZ
[7] = test system: Staphylococcus aureus; experiment: Antibacterial activity against Staphylococcus aureus at 15 ug after 24 hrs by disc diffusion assay; type: functional; conditions: read-out: IZ
[8] = test system: Klebsiella pneumoniae; experiment: Antibacterial activity against Klebsiella pneumoniae at 10 ug after 24 hrs by disc diffusion assay; type: functional; conditions: read-out: IZ
[9] = test system: Salmonella typhi; experiment: Antibacterial activity against Salmonella typhi after 18 to 20 hrs by broth micro dilution assay; type: functional, Salmonella enterica subsp. enterica serovar Typhi; conditions: Salmonella enterica
[10] = test system: Staphylococcus aureus; experiment: Antibacterial activity against Staphylococcus aureus at 10 ug after 24 hrs by disc diffusion assay; type: functional; conditions: read-out: IZ
[11] = test system: Pseudomonas aeruginosa; experiment: Antibacterial activity against Pseudomonas aeruginosa at 15 ug after 24 hrs by disc diffusion assay; type: functional; conditions: read-out: IZ
[12] = test system: Pseudomonas aeruginosa; experiment: Antibacterial activity against Pseudomonas aeruginosa at 20 ug after 24 hrs by disc diffusion assay; type: functional; conditions: read-out: IZ
[13] = test system: Staphylococcus aureus; experiment: Antibacterial activity against Staphylococcus aureus at 5 ug after 24 hrs by disc diffusion assay; type: functional; conditions: read-out: IZ
[14] = test system: Klebsiella pneumoniae; experiment: Antibacterial activity against Klebsiella pneumoniae at 25 ug after 24 hrs by disc diffusion assay; type: functional; conditions: read-out: IZ
[15] = test system: Escherichia coli; experiment: Antibacterial activity against Escherichia coli after 18 to 20 hrs by broth micro dilution assay; type: functional
[16] = test system: Salmonella typhi; experiment: Antibacterial activity against Salmonella typhi at 10 ug after 24 hrs by disc diffusion assay; type: functional, Salmonella enterica subsp. enterica serovar Typhi; conditions: Salmonella enterica, read-out: IZ
[17] = test system: Escherichia coli; experiment: Inhibition of Escherichia coli DNA gyrase -mediated DNA relaxation using pBR322 DNA as substrate at […] after 1 hrs by agarose gel electrophoresis
[18] = test system: Escherichia coli; experiment: Antibacterial activity against Escherichia coli at 10 ug after 24 hrs by disc diffusion assay; type: functional; conditions: read-out: IZ
[19] = test system: Pseudomonas aeruginosa; experiment: Antibacterial activity against Pseudomonas aeruginosa at 25 ug after 24 hrs by disc diffusion assay; type: functional; conditions: read-out: IZ
[20] = test system: Pseudomonas aeruginosa; experiment: Antibacterial activity against Pseudomonas aeruginosa at 5 ug after 24 hrs by disc diffusion assay; type: functional; conditions: read-out: IZ
[21] = test system: Bacillus subtilis; experiment: Antibacterial activity against Bacillus subtilis at 10 ug after 24 hrs by disc diffusion assay; type: functional; conditions: read-out: IZ
[22] = test system: Escherichia coli; experiment: Antibacterial activity against Escherichia coli at 5 ug after 24 hrs by disc diffusion assay; type: functional; conditions: read-out: IZ
[23] = test system: Escherichia coli; experiment: Antibacterial activity against Escherichia coli at 20 ug after 24 hrs by disc diffusion assay; type: functional; conditions: read-out: IZ
[24] = test system: Bacillus subtilis; experiment: Antibacterial activity against Bacillus subtilis at 15 ug after 24 hrs by disc diffusion assay; type: functional; conditions: read-out: IZ
[25] = test system: Staphylococcus aureus; experiment: Antibacterial activity against Staphylococcus aureus at 25 ug after 24 hrs by disc diffusion assay; type: functional; conditions: read-out: IZ
[26] = test system: Salmonella typhi; experiment: Antibacterial activity against Salmonella typhi at 25 ug after 24 hrs by disc diffusion assay; type: functional, Salmonella enterica subsp. enterica serovar Typhi; conditions: Salmonella enterica, read-out: IZ
[27] = test system: Klebsiella pneumoniae; experiment: Antibacterial activity against Klebsiella pneumoniae at 15 ug after 24 hrs by disc diffusion assay; type: functional; conditions: read-out: IZ
[28] = test system: Escherichia coli; experiment: Antibacterial activity against Escherichia coli at 15 ug after 24 hrs by disc diffusion assay; type: functional; conditions: read-out: IZ
[29] = test system: Bacillus subtilis; experiment: Antibacterial activity against Bacillus subtilis at 25 ug after 24 hrs by disc diffusion assay; type: functional; conditions: read-out: IZ
[30] = test system: Escherichia coli; experiment: Inhibition of DNA gyrase mRNA expression in Escherichia coli measured up to 24 hrs by RT-PCR; type: functional, organism-based
[31] = test system: Salmonella typhi; experiment: Antibacterial activity against Salmonella typhi at 15 ug after 24 hrs by disc diffusion assay; type: functional, Salmonella enterica subsp. enterica serovar Typhi; conditions: Salmonella enterica, read-out: IZ
[32] = test system: Salmonella typhi; experiment: Antibacterial activity against Salmonella typhi at 20 ug after 24 hrs by disc diffusion assay; type: functional, Salmonella enterica subsp. enterica serovar Typhi; conditions: Salmonella enterica, read-out: IZ
[33] = test system: Salmonella typhi; experiment: Antibacterial activity against Salmonella typhi at 5 ug after 24 hrs by disc diffusion assay; type: functional, Salmonella enterica subsp. enterica serovar Typhi; conditions: Salmonella enterica, read-out: IZ
[34] = test system: Escherichia coli; experiment: Inhibition of Escherichia coli DNA gyrase assessed as inhibition of DNA supercoiling activity using pBR322 DNA as substrate at […] after 3 hrs by agarose gel electrophoresis
[35] = test system: Klebsiella pneumoniae; experiment: Antibacterial activity against Klebsiella pneumoniae after 18 to 20 hrs by broth micro dilution assay; type: functional
[36] = test system: Klebsiella pneumoniae; experiment: Antibacterial activity against Klebsiella pneumoniae at 20 ug after 24 hrs by disc diffusion assay; type: functional; conditions: read-out: IZ
[37] = test system: Bacillus subtilis; experiment: Antibacterial activity against Bacillus subtilis after 18 to 20 hrs by broth micro dilution assay; type: functional
[38] = test system: Staphylococcus aureus; experiment: Antibacterial activity against Staphylococcus aureus after 18 to 20 hrs by broth micro dilution assay; type: functional
[39] = test system: Bacillus subtilis; experiment: Antibacterial activity against Bacillus subtilis at 5 ug after 24 hrs by disc diffusion assay; conditions: read-out: IZ

CCC1[C@@H]2Nc3ccc(Cl)cc3C(c3ccccc3)[C@H]2CN1OS(=O)(=O)c1ccc(C)cc1 (some centres undefined)
zone of inhibition at 25 µg/disc [1]: 23 mm | MIC50 [2]: 128 µg/mL (≈ 265 µM) | MIC90 [2]: 128 µg/mL (≈ 265 µM) | zone of inhibition at 10 µg/disc [3]: 16 mm | zone of inhibition at 20 µg/disc [4]: 14 mm | zone of inhibition at 5 µg/disc [5]: 20 mm | zone of inhibition at 20 µg/disc [6]: 10 mm | zone of inhibition at 15 µg/disc [7]: 13 mm | zone of inhibition at 10 µg/disc [8]: 26 mm | MIC50 [9]: 128 µg/mL (≈ 265 µM) | MIC90 [9]: 128 µg/mL (≈ 265 µM) | zone of inhibition at 10 µg/disc [10]: 12 mm | zone of inhibition at 15 µg/disc [11]: 17 mm | zone of inhibition at 20 µg/disc [12]: 22 mm | zone of inhibition at 5 µg/disc [13]: 9 mm | zone of inhibition at 25 µg/disc [14]: 36 mm | MIC50 [15]: 128 µg/mL (≈ 265 µM) | MIC90 [15]: 128 µg/mL (≈ 265 µM) | zone of inhibition at 10 µg/disc [16]: 16 mm | inhibition [17]: Active | zone of inhibition at 10 µg/disc [18]: 16 mm | zone of inhibition at 25 µg/disc [19]: 24 mm | zone of inhibition at 5 µg/disc [20]: 10 mm | zone of inhibition at 10 µg/disc [21]: 7 mm | zone of inhibition at 5 µg/disc [22]: 10 mm | zone of inhibition at 20 µg/disc [23]: 20 mm | zone of inhibition at 15 µg/disc [24]: 9 mm | zone of inhibition at 25 µg/disc [25]: 17 mm | zone of inhibition at 25 µg/disc [26]: 22 mm | zone of inhibition at 15 µg/disc [27]: 30 mm | zone of inhibition at 15 µg/disc [28]: 18 mm | zone of inhibition at 25 µg/disc [29]: 12 mm | inhibition of gyrase mRNA expression (active/not active) [30]: Active | zone of inhibition at 15 µg/disc [31]: 18 mm | zone of inhibition at 20 µg/disc [32]: 20 mm | zone of inhibition at 5 µg/disc [33]: 10 mm | DNA gyrase inhibition (active/inactive) [34]: Active | MIC50 [35]: 128 µg/mL (≈ 265 µM) | MIC90 [35]: 128 µg/mL (≈ 265 µM) | zone of inhibition at 20 µg/disc [36]: 34 mm | MIC50 [37]: 128 µg/mL (≈ 265 µM) | MIC90 [37]: 128 µg/mL (≈ 265 µM) | MIC50 [38]: 128 µg/mL (≈ 265 µM) | MIC90 [38]: 128 µg/mL (≈ 265 µM)

O=C(O)c1cn(C2CC2)c2cc(N3CCNCC3)c(F)cc2c1=O [CIPROFLOXACIN]
MIC50 [2]: 0.5 µg/mL (≈ 1.51 µM) | MIC90 [2]: 1 µg/mL (≈ 3.02 µM) | zone of inhibition at 10 µg/disc [3]: 14 mm | zone of inhibition at 20 µg/disc [4]: 30 mm | zone of inhibition at 5 µg/disc [5]: 24 mm | zone of inhibition at 20 µg/disc [6]: 10 mm | zone of inhibition at 15 µg/disc [7]: 26 mm | zone of inhibition at 10 µg/disc [8]: 26 mm | MIC50 [9]: 0.5 µg/mL (≈ 1.51 µM) | MIC90 [9]: 1 µg/mL (≈ 3.02 µM) | zone of inhibition at 10 µg/disc [10]: 24 mm | zone of inhibition at 15 µg/disc [11]: 16 mm | zone of inhibition at 20 µg/disc [12]: 20 mm | zone of inhibition at 5 µg/disc [13]: 22 mm | zone of inhibition at 25 µg/disc [14]: 36 mm | MIC90 [15]: 1 µg/mL (≈ 3.02 µM) | zone of inhibition at 10 µg/disc [16]: 16 mm | inhibition [17]: Active | zone of inhibition at 10 µg/disc [18]: 16 mm | zone of inhibition at 25 µg/disc [19]: 23 mm | zone of inhibition at 5 µg/disc [20]: 12 mm | zone of inhibition at 10 µg/disc [21]: 7 mm | zone of inhibition at 15 µg/disc [24]: 9 mm | zone of inhibition at 25 µg/disc [25]: 36 mm | zone of inhibition at 25 µg/disc [26]: 24 mm | zone of inhibition at 15 µg/disc [27]: 30 mm | zone of inhibition at 15 µg/disc [28]: 18 mm | zone of inhibition at 25 µg/disc [29]: 12 mm | zone of inhibition at 15 µg/disc [31]: 18 mm | zone of inhibition at 5 µg/disc [39]: 6 mm | zone of inhibition at 20 µg/disc [32]: 22 mm | zone of inhibition at 5 µg/disc [33]: 14 mm | DNA gyrase inhibition (active/inactive) [34]: Active | MIC50 [35]: 0.5 µg/mL (≈ 1.51 µM) | MIC90 [35]: 1 µg/mL (≈ 3.02 µM) | zone of inhibition at 20 µg/disc [36]: 34 mm | MIC50 [37]: 0.5 µg/mL (≈ 1.51 µM) | MIC90 [37]: 1 µg/mL (≈ 3.02 µM) | MIC50 [38]: 0.5 µg/mL (≈ 1.51 µM) | MIC90 [38]: 1 µg/mL (≈ 3.02 µM)
